T1: PfDTD (D-aminoacyl-tRNA deacylase from Plasmodium falciparum) (Plasmodium falciparum, UniProt Q8IIS0)
T1 construct: gene DTD; recombinant; C-terminal His-tagged U-15N protein for NMR; dimer with cross-subunit Gly-cisPro motif in the active site
T1 sequence (Q8IIS0 1-164): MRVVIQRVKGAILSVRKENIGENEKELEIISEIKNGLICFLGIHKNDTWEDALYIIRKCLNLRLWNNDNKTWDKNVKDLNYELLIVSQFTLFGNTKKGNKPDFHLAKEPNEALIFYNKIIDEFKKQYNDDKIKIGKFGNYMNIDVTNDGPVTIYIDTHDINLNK

B1: D-aminoacyl-tRNA deacylase from Plasmodium falciparum (enzyme)
chain: T1 sequence (Q8IIS0 1-164)
notes: D-aminoacyl-tRNA deacylase (DTD), Plasmodium falciparum, UniProt Q8IIS0; no tag is stated for the crystallised protein; The crystal also holds the small-molecule ligand Gly3AA; also called PfDTD; DTD; source: cloned, expressed, and purified as described in [15]

Legend:
[1] = target: T1, PfDTD (D-aminoacyl-tRNA deacylase from Plasmodium falciparum); assay: 2D […]-1H TROSY NMR titration (chemical shift perturbation); format: binding; settings: substrate analog; 50 mM HEPES pH 7.0, 50 mM NaCl; 0.2 mM protein, up to 3 mM ligand
[2] = target: the molecule itself; assay: crystal structure; co-crystal of PfDTD with Gly3AA (molar ratio 1:20), P2(1), eight monomers in the asymmetric unit; 0.1 M HEPES pH 7.5, 0.4 M NaCl, 28% PEG3350

| Molecule | 2D 15N-1H TROSY NMR titration (chemical shift perturbation) [1] | binding result [2] |
| --- | --- | --- |
| C[C@@H](N)C(=O)N[C@H]1[C@@H](O)[C@H](n2cnc3c(N)ncnc32)O[C@@H]1CO [D-Ala3AA, D-alanyl-3′-aminoadenosine] | the data indicated binding of D-Ala3AA but not of L-Ala3AA | – |
| B1 | – | binds |

Reference: article PMC4880308, “Elongation Factor Tu Prevents Misediting of Gly-tRNA(Gly) Caused by the Design Behind the Chiral Proofreading Site of D-Aminoacyl-tRNA Deacylase” (PLoS Biology, 2016)
